# “And” between values parts separate entries of the source, which are not always exact repeats. Equal values may be shown once.
# What was measured:
# [1] = tested on: A2780 (ovarian carcinoma); assay: SRB cytotoxicity assay, A2780; type: cell-based, human; settings: for selectivity index 1 (SI 1): CCD18Co/A2780; for IC50: SRB assay, 72 h treatment, mean n = 3, SD 5-10%; for tumor cell selectivity, in words: tumor cells vs non-malignant fibroblasts CCD18Co
# Source text: (§1) All compounds were screened for their cytotoxic activity and tumor cell selectivity using our standard model, previously described, comprising a selection of human tumor cell lines representing different solid tumor entities and non-malignant human fibroblasts (CCD18Co) including the cell line pair A2780/A2780cis, a well-known model of acquired drug resistance.
# (§2) Reagents were bought from commercial suppliers and used without further purification. The solvents were dried according to the usual procedures. TLC was performed on silica gel (Macherey-Nagel, detection with UV absorption; Macherey-Nagel, Düren, Germany). […] Numbering in the NMR spectra: 1–20 (diterpene core), 21–24 for O-(CH2)n-N fragment followed by the pyridinium ring, the ethenyl moiety and the indole moiety. […] IR spectra were recorded on a Perkin-Elmer Spectrum Two (UATR Two Unit, Perkin-Elmer GmbH, Rodgau, Germany). […] Both media were supplemented with 10% fetal bovine serum (Biowest, Nuaillé, France) and 1% penicillin-streptomycin (Sigma-Aldrich).
# (§3) Cytotoxic activities of compounds were analyzed using the SRB cytotoxicity assay. Cells were seeded in 96-well plates and after 24 h were treated with serial dilutions of compounds for 72 h. All subsequent steps were performed according to the previously described SRB assay protocol. Dose–response curves and calculation of IC50 values, including standard deviations, were carried out using GraphPad Prism8.
# [2] = SRB cytotoxicity assay, CCD18Co; type: cell-based, human; settings: human, CCD18Co non-malignant fibroblasts, 72 h treatment, mean n = 3, SD 5-10%
# Source text: as §1, §2, §3
# A549 (lung carcinoma) = assay: SRB cytotoxicity assay, A549; type: cell-based, human; settings: for selectivity index 2 (SI 2): CCD18Co/A549; for IC50: SRB assay, 72 h treatment, mean n = 3, SD 5-10%
# Source text: as §1, §2, §3
# MCF7 (breast carcinoma) = assay: SRB cytotoxicity assay, MCF7; type: cell-based, human; settings: mean n = 3, SD 5-10%
# Source text: as §1, §2, §3
# [3] = tested on: A2780cis (resistant derivative of A2780); assay: SRB cytotoxicity assay, A2780cis; type: cell-based, human; settings: for IC50: SRB assay, 72 h treatment, mean n = 3, SD 5-10%; for resistance index (RI): quotient IC50 values A2780cis/A2780; for drug resistance in the A2780/A2780cis model, in words: A2780cis vs A2780
# Source text: as §1, §2, §3
# [4] = tested on: HT29 (colorectal carcinoma); assay: SRB cytotoxicity assay, HT29; type: cell-based, human; settings: mean n = 3, SD 5-10%
# Source text: as §1, §2, §3
# A549 cells = assay: Subcellular localization, live cell fluorescence imaging with AHCS2 and Hoechst 33342; type: cell-based, human; settings: 24 h, 10 µM of 5 or 1 µM of 17 or 25, together with 20 nM AHCS2, Hoechst 33342
# Source text: Next, the subcellular accumulation of compounds 17 and 25 compared to 5 (F16 group) was studied, employing the fluorescent characteristics mediated by the F16 group. Expecting a mitochondrial accumulation of the compounds, our previously described strong mitochondria-targeted and NIR fluorescent agent/mitocan AHCS2 (compound 21 in ref. [4]) was used, thus enabling simultaneous analysis and direct comparison due to different fluorescence spectra.
# Analysis of subcellular localization of compounds was performed in A549 cells using the established mitochondrial targeting compound AHCS2 [4] for direct comparison. For all procedures, RPMI 1640 media without phenol-red (Pan-Biotech GmbH, Aidenbach, Germany) was used. Cells were seeded in a µ-Plate 96-well black plate (ibiTreat: #1.5 polymer coverslip bottom, ibidi GmbH, Gräfelfing, Germany) at a cell density of 30.000 per well. After 24 h, cells were treated with 10 µM of compound 5 or 1 µM of compound 17 or 1 µM of compound 25, each together with 20 nM of compound AHCS2. After 24 h, Hoechst 33342 (Sigma-Aldrich) was added and live cell imaging was performed on an Axio Observer 7 (Carl Zeiss Microscopy Deutschland GmbH, Oberkochen, Germany) using the settings for Ex/Em, as follows: Hoechst 33342 (385 nm/425 nm), F16 compounds (475 nm/514 nm), AHCS2 (735 nm/785 nm). For simultaneous analysis, multiple Z-stacked images were taken and resulting pictures were reconstructed using the ZEN 3.5 pro software (Zeiss).
# [5] = tested on: CCD18Co (non-malignant human fibroblasts); assay: SRB cytotoxicity assay, CCD18Co; type: cell-based; settings: 72 h treatment, mean n = 3, SD 5-10%
# Source text: as §1, §2, §3
# [6] = Homo sapiens, MCF7, 72 h treatment
# [7] = Homo sapiens, HT-29, 72 h treatment
Compound,selectivity index 1 (SI 1) [1],"IC50 ([1]; Homo sapiens, A2780) [µM]",IC50 at 72 h [2] [µM],melting point [°C],selectivity index 2 (SI 2) (A549 (lung carcinoma)),"IC50 (A549 (lung carcinoma); Homo sapiens, A549) [µM]",IC50 (MCF7 (breast carcinoma); [6]) [µM],"IC50 ([3]; Homo sapiens, A2780cis) [µM]",resistance index (RI) [3],"IC50 [4, 7] [µM]",subcellular accumulation (A549 cells),resistance index (RI) ([3]; listed as doxorubicin),IC50 [1] [µM],"tumor cell selectivity, in words [1]",IC50 [5] [µM],IC50 (A549 (lung carcinoma)) [µM],IC50 (MCF7 (breast carcinoma); 72 h treatment) [µM],"drug resistance in the A2780/A2780cis model, in words [3]",IC50 [3] [µM],IC50 ([4]; 72 h treatment) [µM]
"C(=C\c1c[nH]c2ccccc12)/c1ccccn1 [Compound 3, 3-[(E)-2-Pyridin-2-yl-ethenyl]-1H-indole]",73.27,1.19,87.4,185 to 187,3.33,26.3,1.12,39.2,32.88,28.7,–,–,–,–,–,–,–,–,–,–
"C(=C\c1c[nH]c2ccccc12)/c1ccncc1 [Compound 5, 3-[(E)-2-Pyridin-4-yl-ethenyl]-1H-indole]",44.21,2.26,100,254 to 255,6.49,15.4,10.9,16.4,7.26,16.5,preferential mitochondrial localization,–,–,–,–,–,–,–,–,–
"COc1cccc2c1C(=O)c1c(O)c3c(c(O)c1C2=O)C[C@@](O)(C(=O)CO)C[C@@H]3O[C@H]1C[C@H](N)[C@H](O)[C@H](C)O1 [DOX, doxorubicin, reference compound]",32.7,0.007,0.242,–,13.9,0.017,0.083,0.109,14.7,0.098,–,approximately 14,–,–,–,–,–,–,–,–
"CC12CCC3C(CCC4C(C)(C(=O)OCCCC[n+]5ccc(C=Cc6c[nH]c7ccccc67)cc5)CCCC34C)(CC1=O)C2.[Br-] (stereo not drawn) [Compound 25, 4-{4[(E)-2-(1H-Indol-3-yl)ethenyl]-pyridinium-1-yl}butyl (4α, 8β, 13β) 13-Methyl-16-oxo-17-norkauran-18-oate Bromide]",59 and 59.32,–,–,–,4.14,–,–,–,1.70,–,preferential mitochondrial localization,–,0.18,retained selectivity,10.8,2.62,0.49,able to reduce or even overcome drug resistance,0.31,0.88
"C(=C\c1c[nH]c2ccccc12)/c1cccnc1 [Compound 4, 3-[(E)-2-Pyridin-3-yl-ethenyl]-1H-indole]",77.40,1.17,90.3,–,5.50,16.4,5.18,21,17.97,7.83,–,–,–,–,–,–,–,–,–,–
"CC12CCC3C(CCC4C(C)(C(=O)OCCC[n+]5ccc(C=Cc6c[nH]c7ccccc67)cc5)CCCC34C)(CC1=O)C2.[Br-] (stereo not drawn) [Compound 17, 3-{4-[(E)-2-(1H-Indol-3-yl)ethenyl]-pyridinium-1-yl}-propyl (4α, 8β, 13β) 13-Methyl-16-oxo-17-norkauran-18-oate Bromide]",71.25,–,–,–,5.88,–,–,–,1.07,–,preferential mitochondrial localization,–,0.28,retained selectivity,19.9,3.39,0.59,able to reduce or even overcome drug resistance,0.3,0.76
"CC12CCC3C(CCC4C(C)(C(=O)OCC[n+]5ccccc5C=Cc5c[nH]c6ccccc56)CCCC34C)(CC1=O)C2.[Br-] (stereo not drawn) [Compound 13, 2-{2-[(E)-2-(1H-Indol-3-yl)ethenyl]-pyridinium-1-yl}-ethyl (4α, 8β, 13β) 13-Methyl-16-oxo-17-norkauran-18-oate Bromide]",10.75,–,–,–,1.90,–,–,–,2.12,–,–,–,1.92,–,20.6,10.8,3.83,–,4.07,6.35
"C=C1C[C@@]23CC[C@H]4[C@@](C)(CCC[C@@]4(C)C(=O)OCCCC[n+]4cccc(/C=C/c5c[nH]c6ccccc56)c4)[C@@H]2CC[C@]1(O)C3.[Br-] [Compound 26, 4-{3-[(E)-2-(1H-Indol-3-yl)-ethenyl]-pyridinium-1-yl}butyl (4α)-13-Hydroxykaur-16-en-18-oate Bromide]",9.14,–,–,–,1.69,–,–,–,1.42,–,–,–,1.28,–,11.7,6.94,1.98,–,1.82,2.43
"C[C@@]12CC[C@@H]3[C@@](CC[C@H]4[C@@]3(C)CCC[C@@]4(C)C(=O)OCCBr)(CC1=O)C2 [Compound 7, 2-Bromoethyl (4α, 8β, 13β) 13-Methyl-16-oxo-17-norkauran-18-oate]",3.26,–,–,–,1.94,–,–,–,1.50,–,–,–,19.1,–,62.3,32.1,11.8,–,28.7,16.1

# Reference: publication PMC10821019, “F16 Hybrids Derived from Steviol or Isosteviol Are Accumulated in the Mitochondria of Tumor Cells and Overcome Drug Resistance” (Molecules, 2024)
